According to ChEMBL document CHEMBL1201862, “PubChem BioAssay data set” (2004):
Calls of active or inactive are those of the source.

Experiments:
[1] = target: DNA dC->dU-editing enzyme APOBEC-3A (Homo sapiens, UniProt P31941); experiment: APOBEC3A DNA deaminase inhibitors, dose response, biochemical (AID 504722); assay type: functional
[2] = target: Glucose-6-phosphate 1-dehydrogenase (Homo sapiens, UniProt P11413); experiment: human G6PD enzyme inhibitors, dose response, selectivity assay for P. falciparum G6PD inhibitor project, biochemical, fluorescence (AID 504792); assay type: functional
Chain of Glucose-6-phosphate 1-dehydrogenase (P11413 whole entry): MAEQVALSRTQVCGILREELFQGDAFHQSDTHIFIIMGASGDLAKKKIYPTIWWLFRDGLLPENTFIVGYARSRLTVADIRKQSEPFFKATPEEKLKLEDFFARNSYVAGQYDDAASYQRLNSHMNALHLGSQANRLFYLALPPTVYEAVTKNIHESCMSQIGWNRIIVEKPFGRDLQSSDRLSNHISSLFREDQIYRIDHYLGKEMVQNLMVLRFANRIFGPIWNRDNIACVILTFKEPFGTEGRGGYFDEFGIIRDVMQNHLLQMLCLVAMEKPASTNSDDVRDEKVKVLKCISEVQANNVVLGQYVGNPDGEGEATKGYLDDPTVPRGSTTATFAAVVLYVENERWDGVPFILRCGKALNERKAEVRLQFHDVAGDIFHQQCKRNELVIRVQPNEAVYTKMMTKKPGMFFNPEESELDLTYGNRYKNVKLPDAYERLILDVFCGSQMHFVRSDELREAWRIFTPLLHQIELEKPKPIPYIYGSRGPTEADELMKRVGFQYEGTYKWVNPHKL

Phosphomannomutase 2 = Phosphomannomutase 2 (Homo sapiens, UniProt O15305); experiment: Counter screen SAR assay for PMM2 inhibitors via a fluorescence intensity assay. [Related pubchem assays (depositor defined):AID1545, AID1574]
Chain of Phosphomannomutase 2 (O15305 whole entry): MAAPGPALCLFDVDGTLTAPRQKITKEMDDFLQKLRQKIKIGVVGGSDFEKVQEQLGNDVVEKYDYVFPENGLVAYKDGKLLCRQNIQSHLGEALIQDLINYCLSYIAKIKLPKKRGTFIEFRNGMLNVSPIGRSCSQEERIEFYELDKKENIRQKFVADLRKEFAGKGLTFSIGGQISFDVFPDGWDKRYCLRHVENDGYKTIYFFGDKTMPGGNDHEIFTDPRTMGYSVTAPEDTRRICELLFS

[3] = target: Phosphoethanolamine/phosphocholine phosphatase (Homo sapiens, UniProt Q8TCT1); experiment: SAR assay for compounds that inhibit PHOSPHO1. [Related pubchem assays (depositor defined):AID1545, AID1565, AID1574]
Chain of Phosphoethanolamine/phosphocholine phosphatase (Q8TCT1 whole entry): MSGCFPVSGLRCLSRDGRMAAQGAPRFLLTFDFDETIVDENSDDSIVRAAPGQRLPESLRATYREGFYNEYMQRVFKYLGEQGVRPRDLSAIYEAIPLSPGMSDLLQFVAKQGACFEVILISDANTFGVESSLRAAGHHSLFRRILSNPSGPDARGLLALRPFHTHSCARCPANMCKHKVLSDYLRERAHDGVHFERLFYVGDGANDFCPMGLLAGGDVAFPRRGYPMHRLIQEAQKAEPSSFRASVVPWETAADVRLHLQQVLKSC

[4] = target: DNA dC->dU-editing enzyme APOBEC-3G (Homo sapiens, UniProt Q9HC16); experiment: Dose Response confirmation of small molecule APOBEC3G DNA Deaminase Inhibitors via a fluorescence-based single-stranded DNA deaminase assay. [Related pubchem assays (depositor defined):AID493012, AID493028]; assay type: functional
Chain of DNA dC->dU-editing enzyme APOBEC-3G (Q9HC16 whole entry): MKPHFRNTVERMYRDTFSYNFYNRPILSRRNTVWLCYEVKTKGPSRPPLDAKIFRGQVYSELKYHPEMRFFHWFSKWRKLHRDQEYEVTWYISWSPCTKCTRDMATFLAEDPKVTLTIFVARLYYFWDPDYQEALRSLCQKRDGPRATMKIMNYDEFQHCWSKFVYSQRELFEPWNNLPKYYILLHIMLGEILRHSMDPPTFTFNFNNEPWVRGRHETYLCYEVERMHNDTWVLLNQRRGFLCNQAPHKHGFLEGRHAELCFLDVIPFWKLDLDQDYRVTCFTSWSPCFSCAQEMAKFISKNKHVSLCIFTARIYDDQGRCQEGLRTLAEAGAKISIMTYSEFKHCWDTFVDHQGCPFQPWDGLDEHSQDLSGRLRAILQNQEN

T-cell = experiment: inhibitors of CD8+ T cell–vesicle binding, dose response, mouse 2C CD8+ T cells, flow cytometry (AID 485284); assay type: functional
[5] = target: T1, Alkaline phosphatase, tissue-nonspecific isozyme (Homo sapiens, UniProt P05186); experiment: human TNAP enzyme inhibitors, SAR follow-up, biochemical, luminescent, dose response (AID 1056)
T1 sequence (P05186 whole entry): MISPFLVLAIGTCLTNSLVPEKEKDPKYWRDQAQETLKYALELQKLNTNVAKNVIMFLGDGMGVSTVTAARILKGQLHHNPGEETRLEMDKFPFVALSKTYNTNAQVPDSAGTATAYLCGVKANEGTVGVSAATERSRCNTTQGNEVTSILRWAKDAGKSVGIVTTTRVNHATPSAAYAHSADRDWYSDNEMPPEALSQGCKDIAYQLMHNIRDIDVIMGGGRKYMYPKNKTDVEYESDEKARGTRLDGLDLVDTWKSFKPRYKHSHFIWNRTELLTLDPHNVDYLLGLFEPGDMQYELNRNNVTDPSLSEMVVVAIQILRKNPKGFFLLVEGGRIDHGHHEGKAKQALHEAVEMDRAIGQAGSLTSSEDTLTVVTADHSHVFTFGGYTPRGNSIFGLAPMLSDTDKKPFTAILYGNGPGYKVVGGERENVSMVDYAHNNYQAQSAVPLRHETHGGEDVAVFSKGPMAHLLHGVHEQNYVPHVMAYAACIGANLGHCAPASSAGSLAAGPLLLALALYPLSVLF

[6] = HeLa cell cytotoxicity, dose response, cytotoxicity control for MgcRacGAP inhibitor project (AID 624300); assay type: functional
[7] = target: T2, Rac GTPase-activating protein 1 (Homo sapiens, UniProt Q9H0H5); experiment: MgcRacGAP GTPase-activating activity inhibitors, confirmation, biochemical, ADP Hunter fluorescence, primary and confirmatory (AID 624330); assay type: functional
T2 sequence (Q9H0H5 whole entry): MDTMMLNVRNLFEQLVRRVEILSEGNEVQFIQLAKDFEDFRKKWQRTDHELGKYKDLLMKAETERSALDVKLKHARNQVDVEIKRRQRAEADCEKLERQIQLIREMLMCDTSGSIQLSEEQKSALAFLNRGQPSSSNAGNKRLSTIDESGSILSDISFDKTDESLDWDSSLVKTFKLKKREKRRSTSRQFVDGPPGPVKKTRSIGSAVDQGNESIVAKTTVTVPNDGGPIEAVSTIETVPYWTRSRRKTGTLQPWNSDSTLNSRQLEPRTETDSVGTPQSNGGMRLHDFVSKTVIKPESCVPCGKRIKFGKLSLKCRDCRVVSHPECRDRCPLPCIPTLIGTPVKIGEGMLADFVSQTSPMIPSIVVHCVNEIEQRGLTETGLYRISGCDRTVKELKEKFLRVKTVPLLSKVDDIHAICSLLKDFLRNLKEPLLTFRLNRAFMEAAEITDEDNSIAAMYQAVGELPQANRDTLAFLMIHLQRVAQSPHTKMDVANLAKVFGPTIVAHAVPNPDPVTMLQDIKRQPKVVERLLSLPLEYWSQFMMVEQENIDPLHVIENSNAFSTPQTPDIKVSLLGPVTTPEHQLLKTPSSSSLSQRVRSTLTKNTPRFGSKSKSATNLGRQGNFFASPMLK

[8] = target: T3, G-protein coupled receptor 55 (Homo sapiens, UniProt Q9Y2T6); experiment: GPR55 antagonists blocking LPI-driven arrestin recruitment, primary screen, imaging, U2OS, beta-arrestin-GFP, LPI agonist (AID 2013); assay type: functional;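 also: antagonist potency measured as reduced agonist-driven arrestin aggregation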
T3 sequence (Q9Y2T6 whole entry): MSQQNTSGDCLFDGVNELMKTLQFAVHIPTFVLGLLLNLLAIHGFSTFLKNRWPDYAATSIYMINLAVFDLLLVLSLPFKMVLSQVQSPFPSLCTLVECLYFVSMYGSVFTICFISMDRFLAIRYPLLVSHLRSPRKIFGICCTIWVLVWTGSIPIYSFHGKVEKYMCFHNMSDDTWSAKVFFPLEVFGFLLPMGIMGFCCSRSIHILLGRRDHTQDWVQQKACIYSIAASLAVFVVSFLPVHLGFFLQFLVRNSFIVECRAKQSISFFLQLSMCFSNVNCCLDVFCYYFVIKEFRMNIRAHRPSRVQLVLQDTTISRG

Cannabinoid receptor 1 [9] = target: T4, Cannabinoid receptor 1 (Homo sapiens, UniProt P21554); experiment: SAR analysis of antagonists of the Cannabinoid Receptor 1 using an Image-Based Assay - Set 2. [Related pubchem assays (depositor defined):AID2013, AID2026]; assay type: functional
T4 sequence (P21554 whole entry): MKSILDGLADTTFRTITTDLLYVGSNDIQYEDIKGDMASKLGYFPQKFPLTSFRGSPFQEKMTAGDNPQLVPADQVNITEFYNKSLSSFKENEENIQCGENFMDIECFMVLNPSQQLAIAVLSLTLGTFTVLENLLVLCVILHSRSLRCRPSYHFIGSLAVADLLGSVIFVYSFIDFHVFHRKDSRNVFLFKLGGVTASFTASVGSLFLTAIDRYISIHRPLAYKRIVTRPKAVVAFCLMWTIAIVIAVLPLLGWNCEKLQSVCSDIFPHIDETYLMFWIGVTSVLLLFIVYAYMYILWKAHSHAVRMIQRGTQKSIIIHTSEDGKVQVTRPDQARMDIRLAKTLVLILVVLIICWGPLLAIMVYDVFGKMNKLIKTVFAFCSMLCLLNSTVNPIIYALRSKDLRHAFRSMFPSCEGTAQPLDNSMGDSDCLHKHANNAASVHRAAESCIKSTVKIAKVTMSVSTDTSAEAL

[10] = target: T5, G-protein coupled receptor 35 (Homo sapiens, UniProt Q9HC97); experiment: SAR analysis of Agonists of the GPR35 Receptor using an Image-Based Assay - Set 2. [Related pubchem assays (depositor defined):AID2013, AID2026]; assay type: functional
T5 sequence (Q9HC97 whole entry): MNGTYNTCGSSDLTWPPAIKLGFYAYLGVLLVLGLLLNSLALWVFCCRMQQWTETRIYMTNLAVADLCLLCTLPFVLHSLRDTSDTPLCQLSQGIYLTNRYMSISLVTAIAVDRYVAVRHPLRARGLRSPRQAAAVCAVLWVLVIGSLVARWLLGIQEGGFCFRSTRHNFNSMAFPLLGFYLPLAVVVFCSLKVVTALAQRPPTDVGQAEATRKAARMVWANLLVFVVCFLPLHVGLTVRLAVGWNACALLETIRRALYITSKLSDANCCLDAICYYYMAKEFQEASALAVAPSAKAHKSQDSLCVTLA

Cannabinoid receptor 2 [11] = target: T6, Cannabinoid receptor 2 (Homo sapiens, UniProt P34972); experiment: SAR analysis of antagonists of the Cannabinoid Receptor 2 using an Image-Based Assay. [Related pubchem assays (depositor defined):AID2013, AID2026]; assay type: functional
T6 sequence (P34972 whole entry): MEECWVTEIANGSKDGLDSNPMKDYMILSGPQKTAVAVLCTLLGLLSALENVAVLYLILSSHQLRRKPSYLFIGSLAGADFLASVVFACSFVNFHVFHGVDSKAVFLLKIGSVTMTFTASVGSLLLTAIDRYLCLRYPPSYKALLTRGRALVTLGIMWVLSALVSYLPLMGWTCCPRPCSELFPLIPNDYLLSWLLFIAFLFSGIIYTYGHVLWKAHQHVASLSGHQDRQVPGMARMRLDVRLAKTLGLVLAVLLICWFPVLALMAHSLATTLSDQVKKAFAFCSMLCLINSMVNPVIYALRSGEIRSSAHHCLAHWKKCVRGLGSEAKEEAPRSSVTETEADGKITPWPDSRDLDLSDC

Cannabinoid receptor 1 [12] = target: T4, Cannabinoid receptor 1; experiment: SAR analysis of agonists of the Cannabinoid Receptor 1 using an Image-Based Assay - Set 2. [Related pubchem assays (depositor defined):AID2013, AID2026]; assay type: functional
[13] = target: T5, G-protein coupled receptor 35; experiment: SAR analysis of Antagonists of the GPR35 Receptor using an Image-Based Assay - Set 3. [Related pubchem assays (depositor defined):AID2013, AID2026]; assay type: functional
[14] = target: T3, G-protein coupled receptor 55; experiment: GPR55 antagonist potency of analogs, SAR follow-up, imaging, U2OS, beta-arrestin-GFP, LPI agonist, set 2 (AID 2820); assay type: functional
Cannabinoid receptor 2 [15] = target: T6, Cannabinoid receptor 2; experiment: SAR analysis of agonists of the Cannabinoid Receptor 2 using an Image-Based Assay. [Related pubchem assays (depositor defined):AID2013, AID2026]; assay type: functional
[16] = cytotoxicity in NIH/3T3 mouse fibroblasts, dose response, cytotoxicity control, cell-based, mouse embryonic fibroblasts, dry powder, set 2 (AID 493247); assay type: functional; conditions: Fibroblast
Trypanosoma cruzi = experiment: growth inhibition of intracellular Trypanosoma cruzi, dose response, cell-based, plate reader, dry powder, set 3 (AID 493197); assay type: functional
[17] = target: Sphingosine 1-phosphate receptor 4 (Homo sapiens, UniProt O95977); experiment: S1P4 receptor agonists, human, late-stage follow-up, cell-based, fluorescence, synthesized compounds (AID 463107); assay type: functional
Chain of Sphingosine 1-phosphate receptor 4 (O95977 whole entry): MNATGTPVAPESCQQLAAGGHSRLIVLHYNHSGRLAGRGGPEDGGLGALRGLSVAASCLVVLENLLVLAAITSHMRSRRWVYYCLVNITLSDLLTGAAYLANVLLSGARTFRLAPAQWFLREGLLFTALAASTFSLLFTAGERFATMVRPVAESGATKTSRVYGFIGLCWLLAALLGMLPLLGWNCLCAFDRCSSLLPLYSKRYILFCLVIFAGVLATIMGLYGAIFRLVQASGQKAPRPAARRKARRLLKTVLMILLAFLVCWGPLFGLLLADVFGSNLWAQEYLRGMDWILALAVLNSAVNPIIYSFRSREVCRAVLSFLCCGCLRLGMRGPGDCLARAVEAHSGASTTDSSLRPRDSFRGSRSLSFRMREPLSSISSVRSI

[18] = Luminescence Cell-Based Dose Retest to Confirm Inhibitors of Cancer Stem Cells. [Related pubchem assays (depositor defined):AID2717, AID2721]; assay type: functional; conditions: Homo sapiens
[19] = target: DNA damage-inducible transcript 3 protein (Mus musculus, UniProt P35639); assay type: functional, Cricetulus griseus
Chain of DNA damage-inducible transcript 3 protein (P35639 whole entry): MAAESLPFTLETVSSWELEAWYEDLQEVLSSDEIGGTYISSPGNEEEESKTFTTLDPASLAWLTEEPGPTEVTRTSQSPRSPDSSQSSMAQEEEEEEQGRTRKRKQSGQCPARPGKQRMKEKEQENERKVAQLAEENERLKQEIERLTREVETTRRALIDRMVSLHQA

X-box-binding protein 1 = X-box-binding protein 1 (Homo sapiens, UniProt P17861); assay type: functional, Cricetulus griseus;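 also: confirmatory dose-response counter-screen serving a CHOP assay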
Chain of X-box-binding protein 1 (P17861 whole entry): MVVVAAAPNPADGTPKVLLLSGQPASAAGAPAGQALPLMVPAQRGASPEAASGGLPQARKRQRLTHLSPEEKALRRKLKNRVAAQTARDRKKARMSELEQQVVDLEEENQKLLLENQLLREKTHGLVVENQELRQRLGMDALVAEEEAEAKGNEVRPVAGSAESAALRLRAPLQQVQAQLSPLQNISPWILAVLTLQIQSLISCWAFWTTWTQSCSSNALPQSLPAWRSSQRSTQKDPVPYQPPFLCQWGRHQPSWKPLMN

Chain of DNA dC->dU-editing enzyme APOBEC-3A (P31941 whole entry): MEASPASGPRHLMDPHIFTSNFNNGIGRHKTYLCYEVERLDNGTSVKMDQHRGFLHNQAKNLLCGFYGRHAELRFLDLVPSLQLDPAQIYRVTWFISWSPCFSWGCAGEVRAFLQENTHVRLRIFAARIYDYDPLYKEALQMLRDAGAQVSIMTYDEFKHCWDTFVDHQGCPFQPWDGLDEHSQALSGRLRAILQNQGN

Cc1ccc(C)c(-n2sc3ccc(F)cc3c2=O)c1
IC50 [1]: > 100 µM (inactive) | IC50 [2]: 11.3 µM (active) | IC50 (Phosphomannomutase 2): 31.3 µM (active) | IC50 [3]: 7.43 µM (inactive) | IC50 [4]: 13.5 µM (active) | EC50 (T-cell): 3.62 µM (active) | IC50 [5]: > 100 µM (inactive) | CC50 [6]: 67.5 µM (active) | IC50 [7]: 34 µM (active)

Cc1n[nH]c(-c2ccc(O)c(C)c2O)c1Oc1ccccc1
IC50 [8]: 1.9 µM (active) | IC50 (Cannabinoid receptor 1 [9]): 11.7 µM (inactive) | EC50 [10]: > 32 µM (inactive) | IC50 (Cannabinoid receptor 2 [11]): > 32 µM (inactive) | EC50 (Cannabinoid receptor 1 [12]): > 32 µM (inactive) | IC50 [13]: > 32 µM (inactive) | IC50 [14]: 0.854 µM (active) | EC50 (Cannabinoid receptor 2 [15]): > 32 µM (inactive)

O=C(CCc1ccccc1)N/N=C/c1ccc([N+](=O)[O-])o1
AC50 [16]: 26.3 µM (active) | AC50 (Trypanosoma cruzi): 0.335 µM (active)

Cc1ccc(OCCOc2ccccc2C(F)(F)F)c([N+](=O)[O-])n1
EC50 [17]: > 50 µM (inactive)

Oc1ccccc1-n1c(-c2ccccc2)ccc1-c1ccccc1
AC50 [18]: 4.28 µM (active) | Absolute IC50 (CHOP) [19]: 10 µM | Absolute IC50 (XBP1) (X-box-binding protein 1): 10 µM
